# Legend:
# [1] = test system: phosphorylated AKT (pAKT/AKT); experiment: Western blot of phosphorylated AKT in human hepatocytes; type: cell-based; conditions: 3 μM; for phosphorylated AKT (pAKT/AKT) over time (in words): 35 min to 20 hrs, relative to DMSO control; for pAKT (473)/AKT: human hepatocytes, mTORC2 pathway, time point not stated
# Description: (§1) Levels of phosphorylated S6, AKT, and NDRG1 proteins were determined as compared to total S6, AKT, and NDRG1 protein. PNPLA3 mRNA expression was quantified and normalized to housekeeping gene GUSB.
# COL1A1 mRNA = experiment: qRT-PCR of COL1A1 mRNA in human primary hepatic stellate cells; type: cell-based; conditions: for Primary Stellate cells COL1A1 (fold change in mRNA expression): 3 μM, relative to GAPDH
# [2] = test system: phosphorylated 4EBP1 (p4EBP1c (37/46)/4EBP1c); experiment: Western blot of phosphorylated 4EBP1 in human hepatocytes; type: cell-based; conditions: 3 μM, mTORC1 pathway, time point not stated
# [3] = test system: phosphorylated S6 (pS6/S6); experiment: Western blot of phosphorylated S6 in human hepatocytes; type: cell-based; conditions: 3 μM; for phosphorylated S6 (pS6/S6) over time (in words): 35 min to 20 hrs, relative to DMSO control; for pS6/S6: human hepatocytes, mTORC1 pathway, time point not stated
# Description: as §1
# [4] = test system: phosphorylated NDRG1 (pNDRG1/NDRG1); experiment: Western blot of phosphorylated NDRG1 in human hepatocytes; type: cell-based; conditions: 3 μM, mTORC2 pathway, time point not stated
# Description: as §1
# PNPLA3 mRNA [5] = experiment: qRT-PCR of PNPLA3 mRNA in compound-treated primary human hepatocytes; conditions: for PNPLA3 mRNA expression level over time (in words) / PNPLA3 mRNA: 3 μM, normalized to GUSB; for PNPLA3 mRNA expression level over time (in words): 35 min to 20 hrs; for Primary Hepatocytes 4178 PNPLA3 (fold change in mRNA expression): donor 4178, 3 μM; for Primary Hepatocytes 4178 PNPLA3 (fold change in mRNA expression) / Primary Hepatocytes 4282 PNPLA3 (fold change in mRNA expression): relative to GUSB; for Primary Hepatocytes 4282 PNPLA3 (fold change in mRNA expression): donor 4282, 3 μM; for Relative PINPLA3 mRNA: hepatocytes; for PNPLA3 mRNA: human hepatocytes, time point not stated
# PNPLA3 mRNA [6] = experiment: qRT-PCR of PNPLA3 mRNA in human primary hepatic stellate cells; type: cell-based; conditions: for Primary Stellate cells PNPLA3 (fold change in mRNA expression): 3 μM, relative to GAPDH
# PCSK9 mRNA = experiment: qRT-PCR of PCSK9 mRNA in primary hepatocytes; type: cell-based, human; conditions: donor 4178, 3 μM, relative to GUSB
# [7] = test system: multiple human tumor cell types; conditions: combined with cytotoxic, hormonal, and targeted agents; cited from earlier work
# TIM2 mRNA = experiment: qRT-PCR of fibrosis related genes in stellate cells, TIM2; type: cell-based, human; conditions: stellate cells P7, 0.5 μM, 18 hours
# Description: (§2) Stellate cells P7 were treated with 0.5 μM of each of the indicated compounds for 18 hours. Cells were processed for RNA extraction and qRT-PCR as previously described. The assay was repeated in triplicate.
# COL1A2 mRNA = experiment: qRT-PCR of fibrosis related genes in stellate cells, COL1A2; type: cell-based, human; conditions: stellate cells P7, 0.5 μM, 18 hours
# Description: as §2
# ACTA2 mRNA = experiment: qRT-PCR of fibrosis related genes in stellate cells, ACTA2; type: cell-based, human; conditions: stellate cells P7, 0.5 μM, 18 hours
# Description: as §2
# MMP2 mRNA = experiment: qRT-PCR of fibrosis related genes in stellate cells, MMP2; type: cell-based, human; conditions: stellate cells P7, 0.5 μM, 18 hours
# Description: as §2
# PNPLA3 expression = experiment: RNA-seq of compound-treated primary human hepatocytes; type: cell-based
# Description: Cryopreserved hepatocytes were cultured in plating media for 16 hours, transferred to maintenance media for 4 hours. Cultured on serum-free media for 2 hours, then a compound was added. The hepatocytes were maintained on the serum-free media for 16 hours prior to gene expression analysis.
# Human hepatocytes cultured as described above were plated in 24-well format, adding 375,000 cells per well in a volume of 500 μl plating medium. Four hours before treatment, cells were washed with PBS and the medium was changed to either: fresh maintenance medium (complete) or modified maintenance medium.
# Compound stocks were prepared at 1000× final concentration and added in a 2-step dilution to the medium to reduce risk of a compound precipitating out of solution when added to the cells, and to ensure reasonable pipetting volumes. One at a time, each compound was first diluted 10-fold in warm (about 37° C.) modified maintenance medium (initial dilution=ID), mixed by vortexing, and the ID was diluted 100-fold into the cell culture (e.g. 5.1 μl into 1 well of a 24-well plate containing 0.5 mL medium). The plate was mixed by carefully swirling and after all wells were treated and returned to the incubator overnight. If desired, separate plates/wells were treated with vehicle-only controls and/or positive controls. If using multi-well plates, controls were included on each plate. After about 18 hours, cells were harvested for further analysis, e.g., ChIP-seq, RNA-seq, ATAC-seq, etc.
# The expression level of each gene was quantified with normalized FPKM (fragments per kilobase of exon per million mapped fragments). The differentially expressed genes were called using Cuffdiff v2.2.1 with q value<0.01 and log2 fold change>=1 or <=−1.
# (§3) To identify small molecules that modulate PNPLA3, primary human hepatocytes were prepared as a monoculture, and at least one small molecule compound was applied to the cells.
# (§4) RNA-seq was performed to determine the effects of the compounds on PNPLA3 expression in hepatocytes. Fold change was calculated by dividing the level of expression in the cell system that had been perturbed by the level of expression in an unperturbed system. Changes in expression having a p-value≤0.05 were considered significant.
# [8] = test system: COL1A1 mRNA in mouse liver; experiment: In vivo compound testing in wild-type mice, liver COL1A1 mRNA; conditions: 50 mg/kg once daily, oral gavage, four days; GFAP as control
# Description: A group of 6 mice (C57BL/6J strain), 3 male and 3 female, were administered with a candidate compound once daily via oral gavage for four consecutive days. Mice were sacrificed 4 hours post-last dose on the fourth day. Organs including liver, spleen, kidney, adipose, plasma were collected. Mouse liver tissues were pulverized in liquid nitrogen and aliquoted into small microtubes. TRIzol (Invitrogen Cat #15596026) was added to the tubes to facilitate cell lysis from tissue samples. The TRIzol solution containing the disrupted tissue was then centrifuged and the supernatant phase was collected. Total RNA was extracted from the supernatant using Qiagen RNA Extraction Kit (Qiagen Cat #74182) and the target mRNA levels were analyzed using qRT-PCR.
# Candidate compounds were administered at an appropriate dose once daily to a group of wild-type mice consisting of 3 male and 3 female mice. Mice were sacrificed on the fourth day and liver tissue was collected and analyzed for PNPLA3 (or COL1A1) expression by qRT-PCR. […] When COL1A1 was analyzed, a stellate cell specific gene GFAP was used as a house-keeping control.
# TGFB1 mRNA = experiment: qRT-PCR of fibrosis related genes in stellate cells, TGFB1; type: cell-based, human; conditions: stellate cells P7, 0.5 μM, 18 hours
# Description: as §2
# PNPLA5 expression = experiment: RNA-seq of compound-treated primary human hepatocytes, PNPLA5; type: cell-based
# Description: as §3, §4
# [9] = hepatic stellate cells, 0.01 μM
# [10] = hepatic stellate cells, serial dilutions, 18 hours
# [11] = stellate cells P7, 0.5 μM, 18 hours
molecule,measurement,setting,value
CS(=O)(=O)N1CCc2c(-c3cnc(N)nc3)nc(N3CCOCC3)nc21 [CH5132799],phosphorylated AKT (pAKT/AKT) over time (in words),[1],increased at 3 hours and decreased to pre-treatment levels at 4.5 hours
same,pAKT (473)/AKT,[1],0.22
same,Primary Stellate cells COL1A1 (fold change in mRNA expression),COL1A1 mRNA,0.81
same,p4EBP1c (37/46)#/4EBP1c,[2],0.40
same,phosphorylated S6 (pS6/S6) over time (in words),[3],decreased at 1 hour
same,pS6/S6,[3],0.06
same,p-NDRG1/NDRG1,[4],0.47
same,PNPLA3 mRNA expression level over time (in words),PNPLA3 mRNA [5],decreased levels of PNPLA3 expression after 3 hours
same,PNPLA3 mRNA expression level over time (in words),PNPLA3 mRNA [5]; listed as CH51332799,down regulated PNPLA3 gene expression
same,Primary Hepatocytes 4178 PNPLA3 (fold change in mRNA expression),PNPLA3 mRNA [5],0.49
same,Primary Hepatocytes 4282 PNPLA3 (fold change in mRNA expression),PNPLA3 mRNA [5],0.60
same,Relative PINPLA3 mRNA,PNPLA3 mRNA [5]; 0.1 uM,0.940
same,Relative PINPLA3 mRNA,PNPLA3 mRNA [5]; 0.3 uM,0.870
same,Relative PINPLA3 mRNA,PNPLA3 mRNA [5]; 1 uM,0.743
same,Relative PINPLA3 mRNA,PNPLA3 mRNA [5]; 3 uM,0.491
same,PNPLA3 mRNA,PNPLA3 mRNA [5],0.511
same,Primary Stellate cells PNPLA3 (fold change in mRNA expression),PNPLA3 mRNA [6],0.56
same,Primary Hepatocytes 4178 PCSK9 (fold change in mRNA expression),PCSK9 mRNA,0.51
C[C@@]1(C(=O)Nc2ccc(F)nc2)CCCN1c1nc(Nc2cc(C3CC3)[nH]n2)c2cccn2n1 [BMS-754807],combination index,[7],< 1.0
CNC(=O)Nc1ccc(-c2nc(N3CC4CCC(C3)O4)c3cnn(C4CCC5(CC4)OCCO5)c3n2)cc1 [WYE-125132],Primary Stellate cells COL1A1 (fold change in mRNA expression),COL1A1 mRNA,0.46
same,Relative COL1A1 mRNA levels RQ,COL1A1 mRNA; [9],0.92
same,Relative COL1A1 mRNA levels RQ,"COL1A1 mRNA; hepatic stellate cells, 0.1 μM",0.42
same,Relative COL1A1 mRNA levels RQ,"COL1A1 mRNA; hepatic stellate cells, 1 μM",0.26
same,Relative COL1A1 mRNA levels RQ,"COL1A1 mRNA; hepatic stellate cells, 10 μM",0.29
same,COL1A1 expression (in words),COL1A1 mRNA; [10],decreased both PNPLA3 and COL1A1 in HSCs in a dose-dependent manner
same,Relative mRNA COL1A1,COL1A1 mRNA; [11],0.22 ± 0.01
same,Relative mRNA TIMP2,TIM2 mRNA,1.01 ± 0.07
same,Relative mRNA COL1A2,COL1A2 mRNA,0.27 ± 0.00
same,Relative mRNA ACTA2,ACTA2 mRNA,0.54 ± 0.01
same,Relative mRNA MMP2,MMP2 mRNA,1.33 ± 0.02
same,Fold change (Log 2) vs untreated,"PNPLA3 expression; PNPLA3 expression, RNA-seq",−0.86
same,Relative PNPLA3 mRNA levels,"PNPLA3 mRNA [5]; 1 μM of WYE-125132, human hepatocytes, qRT-PCR, mean of three replicates ± standard deviation",0.67 ± 0.09
same,Primary Hepatocytes 4178 PNPLA3 (fold change in mRNA expression),PNPLA3 mRNA [5],0.43
same,Primary Hepatocytes 4282 PNPLA3 (fold change in mRNA expression),PNPLA3 mRNA [5],0.70
same,PNPLA3 expression by reported compound specificity (in words),PNPLA3 mRNA [5]; summary of mTOR/PI3K inhibitor testing,did decrease PNPLA3 expression
same,COL1A1 expression in mouse liver (in words),[8],reduced COL1A1 expression in mouse liver
same,Relative mRNA TGFB1,TGFB1 mRNA,1.10 ± 0.03
same,Primary Stellate cells PNPLA3 (fold change in mRNA expression),PNPLA3 mRNA [6],0.54
same,Relative PNPLA3 mRNA levels RQ,PNPLA3 mRNA [6]; [9],0.44
same,Relative PNPLA3 mRNA levels RQ,"PNPLA3 mRNA [6]; hepatic stellate cells, 0.1 μM",0.36
same,Relative PNPLA3 mRNA levels RQ,"PNPLA3 mRNA [6]; hepatic stellate cells, 1 μM",0.42
same,Relative PNPLA3 mRNA levels RQ,"PNPLA3 mRNA [6]; hepatic stellate cells, 10 μM",0.42
same,PNPLA3 mRNA levels (in words),PNPLA3 mRNA [6]; [10],decreased both PNPLA3 and COL1A1 in HSCs in a dose-dependent manner
same,Relative mRNA PNPLA3,PNPLA3 mRNA [6]; [11],0.20 ± 0.01
same,Primary Hepatocytes 4178 PCSK9 (fold change in mRNA expression),PCSK9 mRNA,0.43
"Cc1nc(NC(=O)N2CCC[C@H]2C(N)=O)sc1-c1ccnc(C(C)(C)C(F)(F)F)c1 [Alpelisib (BYL719), Alpelisib]",phosphorylated AKT (pAKT/AKT) over time (in words),[1],largely did not change
same,pAKT (473)/AKT,[1],0.34
same,Primary Stellate cells COL1A1 (fold change in mRNA expression),COL1A1 mRNA,1.16
same,p4EBP1c (37/46)#/4EBP1c,[2],0.61
same,phosphorylated S6 (pS6/S6) over time (in words),[3],"increased at 2 hours, then decreased"
same,pS6/S6,[3],1.11
same,p-NDRG1/NDRG1,[4],1.11
same,PNPLA3 mRNA expression level over time (in words),PNPLA3 mRNA [5],largely did not change
same,PNPLA3 mRNA expression level over time (in words),PNPLA3 mRNA [5]; listed as Alpenisib,did not lead to decreased PNPLA3 expression
same,Primary Hepatocytes 4178 PNPLA3 (fold change in mRNA expression),PNPLA3 mRNA [5],0.80
same,Primary Hepatocytes 4282 PNPLA3 (fold change in mRNA expression),PNPLA3 mRNA [5],0.69
same,PNPLA3 mRNA,PNPLA3 mRNA [5],0.971
same,Primary Stellate cells PNPLA3 (fold change in mRNA expression),PNPLA3 mRNA [6],0.94
same,Primary Hepatocytes 4178 PCSK9 (fold change in mRNA expression),PCSK9 mRNA,0.67
"GDF2 (protein, UniProt Q9UK05 320-429, looked up) Growth/differentiation factor …: SAGAGSHCQKTSLRVNFEDIGWDSWIIAPKEYEAYECKGGCFFPLADDVTPTKHAIVQTLVHLKFPTKVGKACCVPTKLSPISVLYKDDMGVPTLKYHYEGMSVAECGCR",PNPLA5 expression in the RNA-seq study (in words),PNPLA5 expression,best upregulators of PNPLA3 and PNPLA5
same,PNPLA3 expression in the RNA-seq study (in words),PNPLA3 expression,best upregulators of PNPLA3 and PNPLA5

# Source: patent US20220107328A1, “METHODS OF TREATING LIVER DISEASES” (Camp4 Therapeutics Corporation, priority 2018, published 2022)
